{"source": "patent US7456201B2", "about": "“Pharmaceutically active compounds and methods of use” (Laboratoires Serono SA, priority 2000, dated 2008)", "tested_on": "untransfected CHO parental cells", "assay": "CHO parental cells assay (intracellular cAMP, RIA)", "format": "cell-based, Chinese Hamster", "conditions": "tested on untransfected CHO parental cells", "procedure": "Briefly CHO parental cells were plated in 96 well packard view plates 5×10^4 cells/well in serum containing media. […] The wells were washed with serum free assay medium (containing 0.1 mM MIX) and pre-incubated for 15 minutes in this medium. Compound 1 and forskolin (positive control) were added and the cells were incubated for an additional one hour. The cells were lysed and intracellular cAMP was measured using the Amersham direct one step cAMP-RIA kit according to the manufacturers directions.", "data": [{"smiles": "CC(C)(C)c1ccc(-n2nc(-c3cccnc3)cc2CCCCC(=O)NC(Cc2ccc(O)cc2)C(N)=O)cc1", "note": "(stereo not shown) [Compound 1-B, N-(5-[1-(4-tert-butylphenyl)-3-pyridin-3-yl-1H-pyrazol-5-yl]pentanoyl)tyrosinamide]", "values": [{"measurement": "hFSHR specificity", "value": "hFSHR specific"}]}]}
